Test results from patent US5242929A, “Derivatives of substituted imidazol-2-one and process for their preparation” (Farmitalia Carlo Erba S.r.l., priority 1991, dated 1993).
Read-outs that look alike come from different tables or passages of the source.

Experiments:
5HT3 receptor [1] = molecular target: T1, 5HT3 receptor (Rattus norvegicus, UniProt P35563); experiment: inhibition of the binding of ^3 H-GR65630 in rat entorhinal cortex; set-up: labeled in the entorhinal cortex of the rat brain; from tissue; host or cells: rat entorhinal cortex; settings: for binding model / interaction with 5-HT3 receptors: entorhinal cortex of the rat brain, ^3 H-GR 65630
T1 sequence (P35563 24-483): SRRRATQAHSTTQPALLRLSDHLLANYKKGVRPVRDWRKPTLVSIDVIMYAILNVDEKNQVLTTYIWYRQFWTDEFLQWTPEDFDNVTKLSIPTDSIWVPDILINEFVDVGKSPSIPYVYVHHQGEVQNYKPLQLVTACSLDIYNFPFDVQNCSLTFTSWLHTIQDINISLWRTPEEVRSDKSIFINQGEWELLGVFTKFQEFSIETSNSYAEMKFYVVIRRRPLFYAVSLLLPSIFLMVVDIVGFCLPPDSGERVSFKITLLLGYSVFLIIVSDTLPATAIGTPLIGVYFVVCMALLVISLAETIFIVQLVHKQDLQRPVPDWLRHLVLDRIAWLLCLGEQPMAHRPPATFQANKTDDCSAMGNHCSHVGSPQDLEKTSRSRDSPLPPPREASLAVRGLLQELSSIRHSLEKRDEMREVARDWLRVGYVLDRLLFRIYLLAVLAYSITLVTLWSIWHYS

5HT3 receptor [2] = molecular target: T1, 5HT3 receptor; experiment: von Bezold-Jarisch chemoreflex evoked by 5-HT in the anesthetised rat; assay type: in vivo; set-up: chemoreflex evoked by 5-HT in the anesthetised rat; from tissue; host or cells: whole living anesthetised rat, endogenous receptor (vagal afferents by own knowledge); settings: 5-HT 20 μg/kg i.v., anesthetized rat; for % inhibition of the Bezold-Jarisch reflex: mean ± S.E.M. from 6 animals, *p < 0.01 vs controls (Dunnett's test)
Protocol: Pharmacol. 326, 36-44 (1984).
The following Table I reports the in vivo 5HT3 antagonist activity data obtained in this test for the representative compound of the invention 1-(1-azabicyclo[2.2.2]oct-3 yl)-3-(3-chlorophenyl)-imidazolidin-2-one (internal code FCE 26778).
Inhibition of the Bezold-Jarisch reflex elicited by 5-HT
(20 μg/kg i.v.) by i.v. FCE 26778 in the anesthetized rat.
Values are mean ± S.E.M. from 6 animals

Row | SMILES | Ki (5HT3 receptor [1]) | Ki (5HT3 receptor [1]; [^3 H]GR 65630 labelled 5HT3 sites, rat entorhinal cortex, two site fitting, low affinity, read-out: Ki low) | binding model / interaction with 5-HT3 receptors (5HT3 receptor [1]) | % inhibition of the Bezold-Jarisch reflex (5HT3 receptor [2]; 30 μg/kg i.v.) | % inhibition of the Bezold-Jarisch reflex (5HT3 receptor [2]; 100 μg/kg i.v.) | % inhibition of the Bezold-Jarisch reflex (5HT3 receptor [2]; 300 μg/kg i.v.) | ED50 (5HT3 receptor [2]; iv, limits 54.50-98.39)
1 | O=C1N(c2cccc(Cl)c2)CCN1C1CN2CCC1CC2 (centres unmarked) [FCE 26778, 1-(1-azabicyclo[2.2.2]oct-3 yl)-3-(3-chlorophenyl)-imidazolidin-2-one] | 4.42 nM | 1100 nM | interacted according to a two site non-linear fitting model | 26.66 ± 5.25% | 59.57 ± 5.87% | 81.33 ± 3.32% | 0.0749 mg/kg
2 | CN1C2CCC1CC(OC(=O)c1cc(Cl)cc(Cl)c1)C2 (centres unmarked) [MDL 72222] | 25.5 nM |  | displaced ^3 H-GR 65630 according to one site non-linear fitting |  |  |  | 
3 | CCN(CC)CCNC(=O)c1cc(Cl)c(N)cc1OC [Metoclopramide] | 547 nM |  | displaced ^3 H-GR 65630 according to one site non-linear fitting |  |  |  | 
